Patent US20260013501A1, “HERBICIDAL DERIVATIVES” (SYNGENTA CROP PROTECTION AG, priority 2022, published 2026)

Key:
Format in all cases: in vivo
[1] = test system: Ipomoea hederacea (IPOHE); assay: Pre-emergence Test (Table B1), IPOHE; conditions: evaluated after 13 days
Zea mays (ZEAMX) [2] = assay: Pre-emergence Test (Table B1), ZEAMX; conditions: Rate 1000 g/Ha, evaluated after 13 days
Setaria faberi (SETFA) [3] = assay: Pre-emergence Test (Table B1), SETFA; conditions: evaluated after 13 days
[4] = test system: Amaranthus retoflexus (AMARE); assay: Pre-emergence Test (Table B1), AMARE; conditions: evaluated after 13 days
[5] = test system: Echinochloa crus-galli (ECHCG); assay: Pre-emergence Test (Table B1), ECHCG; conditions: evaluated after 13 days
Setaria faberi (SETFA) [6] = assay: Post-emergence Test (Table B2), SETFA; design: key: five-point scale: 5=81-100%, 4=61-80%, 3=41-60%, 2=21-40%, 1=0-20% damage; conditions: rate 250 g/Ha, evaluated after 13 days
Method: (§1) Seeds of a variety of test species are sown in standard soil in pots (Ipomoea hederacea (IPOHE), Zea mays (ZEAMX), Echinochloa crus-galli (ECHCG), Amaranthus palmeri (AMAPA), (Amaranthus retoflexus (AMARE), and (Setaria faberi (SETFA)). After 8 days cultivation under controlled conditions in a glasshouse (at 24° C./16° C., day/night; 14 hours light; 65% humidity), the plants are sprayed with an aqueous spray solution derived from the formulation of the technical active ingredient in acetone/water (50:50) solution containing 0.5% Tween 20 (polyoxyethelyene sorbitan monolaurate, CAS RN 9005-64-5). Rate of application is shown in g/ha in the tables below. The test plants are then grown in a glasshouse under controlled conditions in a glasshouse (at 24° C./16° C., day/night; 14 hours light; 65% humidity) and watered twice daily. After 13 days the test is evaluated for the percentage damage caused to the plant. The biological activities are shown in the following table on a five-point scale (5=81-100%; 4=61-80%; 3=41-60%; 2=21-40%; 1=0-20%; -=not tested).

[7] = test system: Echinochloa crus-galli (ECHCG); assay: Post-emergence Test (Table B2), ECHCG; design: key: 5-point damage scale: 5=81-100%, 4=61-80%, 3=41-60%, 2=21-40%, 1=0-20%; conditions: evaluated after 13 days
Procedure, shortened: (§2)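 Evaluation 13 days post-spray gives percent plant damage, reported in five 20% bands (1=0-20% up to 5=81-100%). Test species, sown in soil and kept at 24/16 °C day/night with 14 h light, are treated with compound in 50:50 acetone/water plus 0.5% Tween 20, applied per g/ha.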

Zea mays (ZEAMX) [8] = assay: Post-emergence Test (Table B2), ZEAMX; design: key: 5-point damage scale: 5=81-100%, 4=61-80%, 3=41-60%, 2=21-40%, 1=0-20%; conditions: evaluated after 13 days
Procedure, shortened: as §2

[9] = test system: Amaranthus palmeri (AMAPA); assay: Pre-emergence Test (Table B1), AMAPA; conditions: Rate 1000 g/Ha, evaluated after 13 days
[10] = test system: Amaranthus retoflexus (AMARE); assay: Post-emergence Test (Table B2), AMARE; design: key: five-point scale: 5=81-100%, 4=61-80%, 3=41-60%, 2=21-40%, 1=0-20% damage; conditions: rate 1000 g/Ha, evaluated after 13 days
Procedure, shortened: as §2

[11] = test system: Ipomoea hederacea (IPOHE); assay: Post-emergence Test (Table B2), IPOHE; design: key: five-point scale: 5=81-100%, 4=61-80%, 3=41-60%, 2=21-40%, 1=0-20% damage; conditions: rate 1000 g/Ha, evaluated after 13 days
Method: as §1

CCn1c(Cc2ccc(Cl)cc2)cc(=O)c(C(=O)O)c1-c1ccc(Cl)c(Cl)c1 [Compound 7, 6-[(4-chlorophenyl)methyl]-2-(3,4-dichlorophenyl)-1-ethyl-4-oxo-pyridine-3-carboxylic acid]
0: Pre-emergence Test, percentage damage caused to the plant (five-point scale), IPOHE ([1]; Rate 1000 g/Ha) | Pre-emergence Test, percentage damage caused to the plant (five-point scale), ZEAMX (Zea mays (ZEAMX) [2]) | Pre-emergence Test, percentage damage caused to the plant (five-point scale), SETFA (Setaria faberi (SETFA) [3]; Rate 1000 g/Ha) | Pre-emergence Test, percentage damage caused to the plant (five-point scale), AMARE ([4]; Rate 1000 g/Ha) | Pre-emergence Test, percentage damage caused to the plant (five-point scale), ECHCG ([5]; Rate 1000 g/Ha)

CCn1c(Cc2ccccc2C(F)(F)F)cc(=O)c(C(=O)O)c1-c1ccc(Cl)c(Cl)c1 [Compound 11, 2-(3,4-dichlorophenyl)-1-ethyl-4-oxo-6-[[2-(trifluoromethyl)phenyl]methyl]pyridine-3-carboxylic acid]
0: Pre-emergence Test, percentage damage caused to the plant (five-point scale), IPOHE ([1]; Rate 250 g/Ha) | percentage damage caused to the plant, SETFA (Setaria faberi (SETFA) [6]) | percentage damage caused to the plant, ECHCG ([7]; rate 250 g/Ha) | percentage damage caused to the plant, ZEAMX (Zea mays (ZEAMX) [8]; rate 250 g/Ha) | Pre-emergence Test, percentage damage caused to the plant (five-point scale), SETFA (Setaria faberi (SETFA) [3]; Rate 250 g/Ha) | Pre-emergence Test, percentage damage caused to the plant (five-point scale), AMARE ([4]; Rate 250 g/Ha) | Pre-emergence Test, percentage damage caused to the plant (five-point scale), ECHCG ([5]; Rate 250 g/Ha)

CCn1c(Cc2ccc(Cl)cc2F)cc(=O)c(C(=O)O)c1-c1ccc(Cl)c(Cl)c1 [Compound 79, 6-[(4-chloro-2-fluoro-phenyl)methyl]-2-(3,4-dichlorophenyl)-1-ethyl-4-oxo-pyridine-3-carboxylic acid]
0: Pre-emergence Test, percentage damage caused to the plant (five-point scale), IPOHE ([1]; Rate 1000 g/Ha) | Pre-emergence Test, percentage damage caused to the plant (five-point scale), ZEAMX (Zea mays (ZEAMX) [2]) | Pre-emergence Test, percentage damage caused to the plant (five-point scale), AMAPA [9] | Pre-emergence Test, percentage damage caused to the plant (five-point scale), SETFA (Setaria faberi (SETFA) [3]; Rate 1000 g/Ha) | Pre-emergence Test, percentage damage caused to the plant (five-point scale), AMARE ([4]; Rate 1000 g/Ha) | Pre-emergence Test, percentage damage caused to the plant (five-point scale), ECHCG ([5]; Rate 1000 g/Ha)

CCn1c(Cc2ccc(O)nn2)cc(=O)c(C(=O)O)c1-c1ccc(Cl)c(Cl)c1 [Compound 107, 2-(3,4-dichlorophenyl)-1-ethyl-6-[(6-hydroxypyridazin-3-yl)methyl]-4-oxo-pyridine-3-carboxylic acid]
0: Pre-emergence Test, percentage damage caused to the plant (five-point scale), IPOHE ([1]; Rate 1000 g/Ha) | Pre-emergence Test, percentage damage caused to the plant (five-point scale), ZEAMX (Zea mays (ZEAMX) [2]) | percentage damage caused to the plant, ECHCG ([7]; rate 1000 g/Ha) | Pre-emergence Test, percentage damage caused to the plant (five-point scale), AMAPA [9] | percentage damage caused to the plant, ZEAMX (Zea mays (ZEAMX) [8]; rate 1000 g/Ha) | Pre-emergence Test, percentage damage caused to the plant (five-point scale), SETFA (Setaria faberi (SETFA) [3]; Rate 1000 g/Ha) | Pre-emergence Test, percentage damage caused to the plant (five-point scale), AMARE ([4]; Rate 1000 g/Ha) | percentage damage caused to the plant, AMARE [10] | percentage damage caused to the plant, IPOHE [11] | Pre-emergence Test, percentage damage caused to the plant (five-point scale), ECHCG ([5]; Rate 1000 g/Ha)

CCn1c(Cc2ccc(C)nn2)cc(=O)c(C(=O)O)c1-c1ccc(Cl)c(Cl)c1 [Compound 139, 2-(3,4-dichlorophenyl)-1-ethyl-6-[(6-methylpyridazin-3-yl)methyl]-4-oxo-pyridine-3-carboxylic acid]
0: percentage damage caused to the plant, ECHCG ([7]; rate 250 g/Ha) | percentage damage caused to the plant, ZEAMX (Zea mays (ZEAMX) [8]; rate 250 g/Ha) | Pre-emergence Test, percentage damage caused to the plant (five-point scale), SETFA (Setaria faberi (SETFA) [3]; Rate 250 g/Ha)
